EP3391747A1, “USE OF PHENOXYPYRIDINYL-SUBSTITUTED (1H-1,2,4-TRIAZOL-1-YL)ALCOHOLS FOR ENHANCING CROP PERFORMANCE” (Bayer AG, priority 2018, dated 2018)

How the values were obtained:
[1] = tested on: Septoria tritici; assay: Septoria tritici test / in vitro microtest (liquid medium, microtitre plates, optical density at 620 nm); format: cell-based; settings: for EC50 (Mean): mean over the 14 strains; for EC50: 5 days of incubation
Experimental: In an in-vitro microtest, several compounds were tested against different strains of Septoria tritici.
The microtest was performed in liquid medium with 50% malt medium using microtitre plates.
The active compounds are applied as technical active substances dissolved in methanol and 8 concentrations were prepared. The resulting concentration range was 0; 0.0032; 0.016; 0.08; 0.4; 2; 10; and 50 µg a.i. /ml. A mycelium suspension of different strains of Septoria tritici was used for inoculation. After 5 days of incubation in darkness under shaking (10 Hrz) the optical density in each cavity was determined photometrically at 620 nm. […] Table 3: Septoria tritici test /in vitro

[2] = tested on: winter wheat; assay: Field trial in winter wheat: impact on yield, greening and canopy coverage under pathogen-free conditions; format: in vivo, winter wheat variety "Dekan"; settings: 125 g a.i./ha; for Grain Yield (% of Control) / Grain Yield: sprayed threefold at BBCH 31, 39 and 69 as 100EC formulation; for Grain Yield (% of Control): control = 100EC blank formulation; for Grain Yield: harvest July 2017; for Greening (% of Control): measured visually at BBCH growth stage 65, untreated control plots = 100%; for Canopy Coverage: tractor-mounted RGB camera system, BBCH growth stage 37
Experimental: A field trial in winter wheat was conducted in the experimental station "Laacherhof" in Germany from autumn 2016 to summer 2017.
Seeds of the winter wheat variety "Dekan" were planted in October 2016. Fertilization, herbicide- and plant growth regulator applications were carried out according to the local agricultural practice. Additionally, a cover spray with the fungicidal composition "Pronto® Plus" was carried out at BBCH growth stage 51 in order to keep the field trial pathogen-free. The trial was conducted with 4 replicates and the replicates 2, 3 and 4 were randomized. The plot size was 8.8 m^2.
The compounds 2-[6-(4-chlorophenoxy)-2-(trifluoromethyl)-3-pyridyl]-1-(1,2,4-triazol-1-yl)propan-2-ol (I.01) and 2-[6-(4-bromophenoxy)-2-(trifluoromethyl)-3-pyridyl]-1-(1,2,4-triazol-1-yl)propan-2-ol (1.02) were sprayed threefold at BBCH growth stages 31, 39 and 69 with an use rate of 125 g a.i./ha (a.i. = active ingredient, i.e. the respective compound of formula (I)). Both compounds were applied as a 100EC formulation (100EC = emulsion concentrate comprising 100 g/L of the respective active ingredient).
The winter wheat was harvested in July 2017.
The greening effect was measured visually at BBCH growth stage 65. The greening of the untreated control plots corresponds to 100% and the plots of the other treatments were directly compared to the control plots (table 1).
The canopy coverage was measured by a tractor-mounted RGB camera system on May 11, 2017 at BBCH growth stage 37 (table 1). Table 1: Impact of different compounds on yield, greening and canopy coverage

[3] = tested on: leaf discs of grape plants; assay: Leaf disc test: chlorophyll content (greening effect) by SPAD-502 chlorophyll meter; settings: 1 ppm; after 3 days at room temperature (21°C); 5 replicates
Experimental: According to this invention the chlorophyll content is measured by means of the commercially available hand-held chlorophyll meter SPAD-502 (Konica Minolta).
In a lab experiment, leaf discs of grape plants were put in petri dishes containing solutions of different compounds. 5 replicates were used for each treatment. Afterwards, the petri dishes were incubated for max. 7 days at room temperature (21°C). After 3 days, the chlorophyll content of the leaf discs was measured by using a commercially available hand-held chlorophyll meter (SPAD-502, Konica Minolta). Table 2: Impact of 2-[6-(4-bromophenoxy)-2-(trifluoromethyl)-3-pyridyl]-1-(1,2,4-triazol-1-yl)propan-2-ol (I.02) on the chlorophyll content (greening effect) in leaf discs

| SMILES | EC50 (Mean) [1] | EC50 ([1]; strain 01/16) | EC50 ([1]; strain 02/16) | EC50 ([1]; strain 03/16) | EC50 ([1]; strain 04/16) | EC50 ([1]; strain 05/16) | EC50 ([1]; strain 06/16) | EC50 ([1]; strain 07/16) | EC50 ([1]; strain 08/16) | EC50 ([1]; strain 09/16) | EC50 ([1]; strain 11/16) | EC50 ([1]; strain 12/16) | EC50 ([1]; strain 13/16) | EC50 ([1]; strain 14/16) | EC50 ([1]; strain 15/16) | Grain Yield (% of Control) [2] | Grain Yield [2] | Greening (% of Control) [2] | Canopy Coverage [2] | SPAD Reading [3] |
| --- | --- | --- | --- | --- | --- | --- | --- | --- | --- | --- | --- | --- | --- | --- | --- | --- | --- | --- | --- | --- |
| CC(O)(Cn1cncn1)c1ccc(Oc2ccc(Cl)cc2)nc1C(F)(F)F (stereo not shown) [Compound 1.01, 2-[6-(4-chlorophenoxy)-2-(trifluoromethyl)-3-pyridyl]-1-(1,2,4-triazol-1-yl)propan-2-ol] | 0,0203 ppm | 0,1348 ppm | 0,0248 ppm | 0,0032 ppm | 0,0355 ppm | 0,0503 ppm | 0,0039 ppm | 0,0032 ppm | 0,0641 ppm | 0,1002 ppm | 0,0034 ppm | 0,0715 ppm | 0,0055 ppm | 0,0147 ppm | 0,0663 ppm | 108 % of Control | 74,6 dt/ha | 108 % of Control | 58% | – |
| CC(O)(Cn1cncn1)c1ccc(Oc2ccc(Br)cc2)nc1C(F)(F)F (stereo not shown) [Compound 1.02, 2-[6-(4-bromophenoxy)-2-(trifluoromethyl)-3-pyridyl]-1-(1,2,4-triazol-1-yl)propan-2-ol] | 0,0133 ppm | 0,0187 ppm | 0,0108 ppm | 0,0043 ppm | 0,0433 ppm | 0,0223 ppm | 0,0033 ppm | 0,0032 ppm | 0,0629 ppm | 0,0416 ppm | 0,0038 ppm | 0,0806 ppm | 0,0169 ppm | 0,0080 ppm | 0,0059 ppm | 112 % of Control | 77,8 dt/ha | 137 % of Control | 58% | 32 |
| CC(C)(C)C(O)(CCc1ccc(Cl)cc1)Cn1cncn1 (stereo not shown) [Tebuconazole, reference compound] | 7,4138 ppm | 8,1102 ppm | 14,4303 ppm | 13,2784 ppm | 50,0000 ppm | 8,5712 ppm | 10,6222 ppm | 5,4355 ppm | 4,2639 ppm | 27,1082 ppm | 0,6823 ppm | 2,1260 ppm | 28,6583 ppm | 3,4790 ppm | 2,3577 ppm | – | – | – | – | 25 |
